{"source": "patent US20040241871A1", "about": "“Method and apparatus for analyzing endocrine-distrupting substances in vital sample” (priority 2001, published 2004)", "format": "in vivo, human", "details": "for Concentration of Chlordane in Vital Sample, Maternal Serum / Concentration of Chlordane in Vital Sample, Mother's Milk / Concentration of Endocrine-Disrupting Substance in Vital Sample, Cord Serum / Concentration of Endocrine-Disrupting Substance in Vital Sample, Maternal Serum / Concentration of Endocrine-Disrupting Substance in Vital Sample, Mother's Milk / Concentration of Chlordane in Vital Sample, Cord Serum: in fat; for Concentration of Chlordane in Vital Sample, Maternal Serum / Concentration of Chlordane in Vital Sample, Mother's Milk / Concentration of Chlordane in Vital Sample, Cord Serum: individual chlordanes; for PCB isomer value in the cord serum as compared with the maternal serum: cord serum vs maternal serum, confidence coefficient: 95% or more; for Concentration of Endocrine-Disrupting Substance in Vital Sample, Cord Serum / Concentration of Endocrine-Disrupting Substance in Vital Sample, Maternal Serum / Concentration of Endocrine-Disrupting Substance in Vital Sample, Mother's Milk: samples from 10 mothers", "description": "Maternal serum, cord serum and mother's milk samples collected from 10 mothers were used (30 samples in total). These samples were used for the analysis test after obtaining the consent from the subjects.\nThe GPC column used was Shodex (registered trademark) EV-200AC Column (polystyrene-base hard gel column having an inner diameter of 2 mm and a length of 150 mm) manufactured by Showa Denko K. K.\nA programmed temperature vaporizer (PTV) was equipped and in the GC part, an inactivated silica tube (2 m (length)×0.53 mm (inner diameter)) and capillary columns DB-5 (0.5 m (length)×0.25 mm (inner diameter), film thickness: 0.25 μm; and 60 m (length)×0.25 mm (inner diameter), film thickness: 0.1 μm), both manufactured by J & W Scientific, were used. After the injection of solution, the temperature was kept at 83° C. (for 5 minutes) and then elevated to 172° C. at 1° C./min and further to 270° C. at 50° C./min. The measurement was performed at 280° C.\nIn the main test below, the internal standard substances used were 3 kinds of PCBs marked by ^13C (3,3′,4,4′-tetrachlorobiphenyl, 3,3′,4,4′,5-pentachlorobiphenyl, 3,3′,4,4′,5,5′-hexachlorobiphenyl), hexachlorobenzene (HCB) and p,p′-dichlorodiphenyl dichloroethylene (DDE).\nThe cord serum (8 ml), the maternal serum (4 ml) and the mother's milk (2 ml) each was subjected to fat extraction according to the method by Patterson et al. More specifically, the sample was charged into a separating funnel, the internal standard substance was added, and then saturated ammonium sulfate, ethanol and hexane were added at a ratio of about 1:1:3. After shaking to cause separation into two layers, the aqueous layer was transferred to a different separating funnel and hexane was added thereto. After shaking to cause separation into two layers, the hexane layer was combined with the organic layer obtained at the first separation, washed with water, dried over anhydrous sodium sulfate, filtered, concentrated and dried. Thereafter, the total weight of fat was measured. The average fat amount was 0.197% in the cord serum, 0.895% in the maternal serum and 3.04% in the mother's milk.\nAcetone/cyclohexane (3:7) (v/v) was passed through the GPC column at a flow rate of 0.1 ml/min and 20 μl of a solution obtained by dissolving the fat extracted above in 50 to 100 μl of a solvent having the same composition was injected into the GPC.\nBased on the results in the preliminary measurement, the elution composition of 0 to 3.2 minutes after the injection of sample was discarded and the fraction of 3.2 to 5.2 minutes was collected in a sample loop (storage amount: 200 μl) and introduced into GC/MS at 5.2 to 7.5 minutes.\nThe results are shown in Table 1 together with analysis results of other endocrine-disrupting substances."}
{"smiles": "ClC1=C(Cl)[C@]2(Cl)[C@H]3C[C@H](Cl)[C@H](Cl)[C@H]3[C@@]1(Cl)C2(Cl)Cl", "note": "(relative stereo) [cis-Chlordane]", "values": [{"measurement": "Concentration of Chlordane in Vital Sample, Maternal Serum", "result": 0.86, "unit": "ppb"}, {"measurement": "Concentration of Chlordane in Vital Sample, Mother's Milk", "result": 0.93, "unit": "ppb"}]}
{"smiles": "Clc1ccc(-c2cc(Cl)c(Cl)cc2Cl)cc1Cl", "note": "[#118]", "values": [{"measurement": "PCB isomer value in the cord serum as compared with the maternal serum", "result": "significantly low"}]}
{"smiles": "Clc1cc(Cl)c(-c2cc(Cl)c(Cl)cc2Cl)cc1Cl", "note": "[#153]", "values": [{"measurement": "PCB isomer value in the cord serum as compared with the maternal serum", "result": "significantly low"}]}
{"smiles": "Clc1cc(Cl)c(-c2cc(Cl)c(Cl)c(Cl)c2)c(Cl)c1", "note": "[#168]", "values": [{"measurement": "PCB isomer value in the cord serum as compared with the maternal serum", "result": "significantly low"}]}
{"smiles": "Clc1ccc(-c2cc(Cl)c(Cl)c(Cl)c2Cl)c(Cl)c1Cl", "note": "[#170]", "values": [{"measurement": "PCB isomer value in the cord serum as compared with the maternal serum", "result": "significantly low"}]}
{"smiles": "ClC(Cl)=C(c1ccc(Cl)cc1)c1ccc(Cl)cc1", "note": "[DDE, p,p′-dichlorodiphenyl dichloroethylene]", "values": [{"measurement": "Concentration of Endocrine-Disrupting Substance in Vital Sample, Cord Serum", "result": 278.63, "unit": "ppb"}, {"measurement": "Concentration of Endocrine-Disrupting Substance in Vital Sample, Maternal Serum", "result": 314.48, "unit": "ppb"}, {"measurement": "Concentration of Endocrine-Disrupting Substance in Vital Sample, Mother's Milk", "result": 343.62, "unit": "ppb"}]}
{"smiles": "Clc1c(Cl)c(Cl)c(Cl)c(Cl)c1Cl", "note": "[HCB, hexachlorobenzene]", "values": [{"measurement": "Concentration of Endocrine-Disrupting Substance in Vital Sample, Cord Serum", "result": 14.14, "unit": "ppb"}, {"measurement": "Concentration of Endocrine-Disrupting Substance in Vital Sample, Maternal Serum", "result": 15.71, "unit": "ppb"}, {"measurement": "Concentration of Endocrine-Disrupting Substance in Vital Sample, Mother's Milk", "result": 14.08, "unit": "ppb"}]}
{"smiles": "ClC1=C(Cl)C2(Cl)C3C4OC4C(Cl)C3C1(Cl)C2(Cl)Cl", "note": "(stereo not drawn) [HCE, heptachloroepoxide]", "values": [{"measurement": "Concentration of Endocrine-Disrupting Substance in Vital Sample, Cord Serum", "result": 1.55, "unit": "ppb"}, {"measurement": "Concentration of Endocrine-Disrupting Substance in Vital Sample, Maternal Serum", "result": 2.61, "unit": "ppb"}, {"measurement": "Concentration of Endocrine-Disrupting Substance in Vital Sample, Mother's Milk", "result": 3.06, "unit": "ppb"}]}
{"smiles": "ClC1C(Cl)C(Cl)C(Cl)C(Cl)C1Cl", "note": "(stereo not drawn) [HCH, hexachlorocyclohexane]", "values": [{"measurement": "Concentration of Endocrine-Disrupting Substance in Vital Sample, Cord Serum", "result": 189.54, "unit": "ppb"}, {"measurement": "Concentration of Endocrine-Disrupting Substance in Vital Sample, Maternal Serum", "result": 271.49, "unit": "ppb"}, {"measurement": "Concentration of Endocrine-Disrupting Substance in Vital Sample, Mother's Milk", "result": 315.58, "unit": "ppb"}]}
{"smiles": "ClC1=C(Cl)C2(Cl)C3C(Cl)C=CC3C1(Cl)C2(Cl)Cl", "note": "(stereo not drawn) [Heptachlor]", "values": [{"measurement": "Concentration of Endocrine-Disrupting Substance in Vital Sample, Cord Serum", "result": 1.20, "unit": "ppb"}, {"measurement": "Concentration of Endocrine-Disrupting Substance in Vital Sample, Maternal Serum", "result": 1.17, "unit": "ppb"}, {"measurement": "Concentration of Endocrine-Disrupting Substance in Vital Sample, Mother's Milk", "result": 0.30, "unit": "ppb"}]}
{"smiles": "ClC1=C(Cl)[C@]2(Cl)[C@H]3[C@H]([C@H](Cl)[C@]4(Cl)O[C@H]34)[C@@]1(Cl)C2(Cl)Cl", "note": "[Oxychlordane]", "values": [{"measurement": "Concentration of Chlordane in Vital Sample, Cord Serum", "result": 6.66, "unit": "ppb"}, {"measurement": "Concentration of Chlordane in Vital Sample, Maternal Serum", "result": 6.30, "unit": "ppb"}, {"measurement": "Concentration of Chlordane in Vital Sample, Mother's Milk", "result": 6.49, "unit": "ppb"}]}
{"smiles": "ClC1=C(Cl)[C@]2(Cl)[C@H]3[C@H]([C@H](Cl)C(Cl)[C@@H]3Cl)[C@@]1(Cl)C2(Cl)Cl", "note": "(stereo partly drawn) [cis-Nonachlor]", "values": [{"measurement": "Concentration of Chlordane in Vital Sample, Cord Serum", "result": 0.91, "unit": "ppb"}, {"measurement": "Concentration of Chlordane in Vital Sample, Maternal Serum", "result": 1.54, "unit": "ppb"}, {"measurement": "Concentration of Chlordane in Vital Sample, Mother's Milk", "result": 2.25, "unit": "ppb"}]}
{"smiles": "ClC1=C(Cl)[C@]2(Cl)[C@H]3[C@H]([C@H](Cl)C(Cl)[C@@H]3Cl)[C@@]1(Cl)C2(Cl)Cl", "note": "(stereo partly drawn) [trans-Nonachlor]", "values": [{"measurement": "Concentration of Chlordane in Vital Sample, Cord Serum", "result": 16.35, "unit": "ppb"}, {"measurement": "Concentration of Chlordane in Vital Sample, Maternal Serum", "result": 17.08, "unit": "ppb"}, {"measurement": "Concentration of Chlordane in Vital Sample, Mother's Milk", "result": 19.58, "unit": "ppb"}]}
{"smiles": "ClC1=C(Cl)[C@]2(Cl)C3C(Cl)C(Cl)CC3[C@@]1(Cl)C2(Cl)Cl", "note": "(stereo partly drawn) [γ-Chlordane]", "values": [{"measurement": "Concentration of Chlordane in Vital Sample, Cord Serum", "result": 1.64, "unit": "ppb"}, {"measurement": "Concentration of Chlordane in Vital Sample, Maternal Serum", "result": 1.43, "unit": "ppb"}, {"measurement": "Concentration of Chlordane in Vital Sample, Mother's Milk", "result": 1.66, "unit": "ppb"}]}
